The values that follow come from patent publication US5061720A, “Substituted-4-thiazolidinone derivatives” (A. H. Robins Company, Inc., priority 1989, dated 1991).

Test [1] deals with T1, 5-lipoxygenase (Homo sapiens, UniProt P09917).
T1 construct: Polymorphonuclear leukocytes were obtained from whole human blood; endogenous in cells; host or cells: human polymorphonuclear leukocytes from whole blood, stimulated with A23187
T1 sequence (P09917 1-674): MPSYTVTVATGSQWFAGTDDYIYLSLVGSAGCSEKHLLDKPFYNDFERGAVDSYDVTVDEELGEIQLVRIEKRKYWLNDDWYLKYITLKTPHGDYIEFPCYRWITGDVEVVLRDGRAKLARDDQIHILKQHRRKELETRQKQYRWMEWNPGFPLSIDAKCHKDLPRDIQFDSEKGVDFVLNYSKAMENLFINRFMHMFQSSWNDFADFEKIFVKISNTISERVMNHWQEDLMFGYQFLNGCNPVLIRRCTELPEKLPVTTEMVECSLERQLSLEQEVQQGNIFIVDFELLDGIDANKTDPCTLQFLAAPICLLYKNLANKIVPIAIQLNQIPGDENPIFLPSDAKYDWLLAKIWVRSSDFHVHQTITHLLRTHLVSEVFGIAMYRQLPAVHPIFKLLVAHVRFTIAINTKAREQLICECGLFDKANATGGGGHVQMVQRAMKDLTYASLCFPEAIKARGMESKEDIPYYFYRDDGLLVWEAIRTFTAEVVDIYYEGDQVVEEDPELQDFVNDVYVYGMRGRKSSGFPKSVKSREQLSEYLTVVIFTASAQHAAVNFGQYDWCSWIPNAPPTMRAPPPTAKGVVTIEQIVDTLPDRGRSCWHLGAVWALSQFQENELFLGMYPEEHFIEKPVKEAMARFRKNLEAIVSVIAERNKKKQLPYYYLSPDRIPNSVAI
The test can be described thus: 5-Lipoxygenase Assay (production of 5-HETE from arachidonic acid in polymorphonuclear leukocytes stimulated by A23187). In kind it is cell-based. The settings on record: inhibition of production of 5-HETE, human PMN cells, calcium ionophore A23187, 37° C. On the procedure:
The production of 5-HETE from arachidonic acid in human polymorphonuclear leukocytes stimulated by the calcium ionophore A23187 (Calbiochemicals) was measured by reverse phase high pressure liquid chromatography. This procedure is a modification of the procedure of Sun and McGuire, PROSTAGLANDINS, 26, 211-221 (1983). Addition of substances to the test system that inhibit 5-lipoxygenases cause a decrease in the production of 5-HETE and is thus determined in comparison to reference and control articles also added to the reaction system.
Polymorphonuclear leukocytes were obtained from whole human blood by the procedure of Skoog and Beck, BLOOD, 11, 436-454 (1956). […] The tube is incubated for an additional 10 min at 37° C. and the incubations terminated by addition of 1.5 mL of acetone and cooling to 0° C. 13-Hydroxyoctadecatrienoic acid (13-HODT) (5 μL of 0.2 mM methanolic solution) is added for an internal reference standard. The tube is stored at -20° C. under argon for 4-18 hr. Centrifugation at 1000×g for 10 min causes protein precipitate to form a pellet. The acetone layer is evaporated under a stream of nitrogen and the resultant lipid residue containing the arachidonic acid metabolites and 13-HODT is dissolved in 0.5 mL of methanol and stored at -20° C. until analyzed by high-pressure liquid chromatography (HPLC).
For analysis, a 150-μL aliquot of the methanol solution is evaporated under a stream of argon. The residue is reconstituted with 100 μL of a 1:1 methanol-water mixture and sonified for 15-20 seconds and the mixture analyzed by HPLC (C18 reversed phase Econophere column, methanol:water:acetic acid 79:25:0.2 v/v/v used for elution). Test, reference, and control articles are evaluated in duplicate. The inhibition is reported as that concentration which will inhibit by 50% the production of 5-HETE.

In test [2] the target is T2, cyclooxygenase (Ovis aries, UniProt P05979).
T2 construct: Lipid-depleted Sheep Seminal Vesicle Microsome Suspension; from tissue; host or cells: sheep seminal vesicle microsomes (lipid-depleted powder, detergent solubilized)
T2 sequence (P05979 25-600): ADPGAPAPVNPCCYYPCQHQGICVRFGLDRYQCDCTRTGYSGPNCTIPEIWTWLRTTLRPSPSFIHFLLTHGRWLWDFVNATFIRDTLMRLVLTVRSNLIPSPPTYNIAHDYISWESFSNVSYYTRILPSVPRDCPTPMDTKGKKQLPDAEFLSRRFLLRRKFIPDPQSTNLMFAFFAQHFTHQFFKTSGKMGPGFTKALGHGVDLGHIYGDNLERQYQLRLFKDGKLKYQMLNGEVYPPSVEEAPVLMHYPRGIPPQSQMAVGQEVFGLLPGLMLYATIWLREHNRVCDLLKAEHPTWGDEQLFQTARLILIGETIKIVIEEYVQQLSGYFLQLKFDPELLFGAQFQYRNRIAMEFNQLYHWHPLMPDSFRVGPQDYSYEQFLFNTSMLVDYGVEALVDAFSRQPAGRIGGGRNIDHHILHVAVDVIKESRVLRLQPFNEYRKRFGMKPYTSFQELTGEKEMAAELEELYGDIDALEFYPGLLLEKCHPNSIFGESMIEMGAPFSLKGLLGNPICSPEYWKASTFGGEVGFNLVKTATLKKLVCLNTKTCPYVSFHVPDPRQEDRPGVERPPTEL
In words: Cyclooxygenase Assay (polarigraphic oxygen consumption, lipid-depleted sheep seminal vesicle microsomes). Particulars: 30° C., 2 min incubation, ammonium arachidonate substrate. In kind it is biochemical. On the procedure:
Cyclooxygenase activity was determined polarigraphically with detergent solubilized, lipid-depleted sheep seminal vesical microsomes. Addition of test articles that inhibit cyclooxygenase, including reference standards, cause a decrease in the rate of oxygen consumption in the reactions. Cyclooxygenase activity is determined using the following procedures:
I. Preparation of Test Materials
1. Lipid-Depleted Sheep Seminal Vesicle Microsomal Powder. This preparation follows the procedure of G. Graff et al. J. Biol. Chem. 253, 7662 (1978).
2. Ammonium Arachidonate Solution. A 250 μL aliquot of 20.0 mM arachidonic acid in absolute ethanol and a 50-μL aliquot of concentrated ammonium hydroxide is placed into a test tube. The solvent and excess ammonium hydroxide is evaporated under a stream of nitrogen at room temperature. The ammonium arachidonate residue is dissolved in 500 μL of 100 mM 2-amino-2-hydroxymethyl-1,3-propanediol hydrochloride (Tris HCl) buffer (pH 8.0) by using a vortex mixer. The final concentration of ammonium arachidonate (working solution) is 10.0 mM.
3. Enzyme Buffer 100 mM Tris HCl (pH 8.0) containing 2.0 mM phenol, 5.0 mM ethylenediaminetetraacetic acid (EDTA), 5.0 mM diethyldithiocarbamic acid and 1.0% Tween 20.
4. Reaction Buffer 100 mM Tris HCl (pH 8.0) containing 2.0 μM hematin and 1.0 mM phenol (prepared daily).
5. Detergent Solubilized Lipid-depleted Sheep Seminal Vesicle Microsome Suspension. Ten mg (solid) of lipid-depleted microsomal powder from sheep seminal vesicles is suspended in 1.0 mL of enzyme buffer and kept at 4° C. until used.
6. Solutions of Test (Formula I compound) or Reference Articles. Test and reference articles are dissolved in the reaction buffer prepared in 4) or a solvent that will not interfere with cyclooxygenase activity, e.g., dimethylsulfoxide, ethanol or acetone.
II. Cyclooxygenase Inhibition Assay
Three mL of the reaction buffer and 20 μL of the microsomal enzyme suspension are placed in a Yellow Springs Instrument (YSI) oxygen chamber where the temperature is maintained at 30° C. by means of a temperature controlled circulating water bath. Aliquots of the solutions containing ≤[…] of Formula I compound (test article) or reference article [see 6) above] are added to the YSI chamber and incubated for 2 minutes. The reaction is initiated by addition of 30 μL of the 10 mM ammonium arachidonate solution and cyclooxygenase activity determined polarigraphically using an oxygen electrode by measuring the rate of oxygen consumption [Cook et al., Anal. Biochem 96 341-51 (1979) and Cook and Lands, Can. J. Biochem. 53, 1220-1231 (1975)].
Test, reference, and control articles were evaluated in triplicate. Cyclooxygenase activity was determined from the slope (mv/unit time) of the recorder tracing with 1 mV being proportional to a 2.34 μM change in oxygen concentration.
The IC50 (concentration of test or reference article that inhibits the reaction by 50%) was calculated from cumulative plots relating the extent of inhibition of cyclooxygenase activity in control group assays to increasing concentrations of test article. Where no inhibition exists, the IC50 is expressed as greater than the highest concentration of the drug tested.

Test [3] has as its system guinea pig skin. In words: UV-Erythema in Guinea Pigs. In kind it is in vivo. Details: key: +: active; -: inactive. The settings on record: topical, 50 μL of cream with 1.0 mg test article per 1 g, immediately after UV exposure; active = composite score significantly lower than control, Dunnett's t-test p≤0.05. On the procedure:
I. Preparation of Formulation (cream)
All drugs tested were prepared by thoroughly incorporating 1.0 mg of the test article into 1 g of a pH 7.0 cream vehicle of the following composition.
methyl glucose sesquistearate 1.6%
methyl gluceth-20 sesquistearate 2.4%
emulsifying wax, N.F. 5.0%
mineral oil (heavy), U.S.P. 1.0%
white petrolatum, U.S.P. 5.0%
stearic acid, U.S.P. 2.5%
sodium benzoate, N.F. 0.1%
magnesium aluminum silicate 1.5%
deionized water, pH 7.0 64.8%
The preparations were packed into 1-cc plastic syringes.
II. Pharmacological Assay
The backs of female, English short hair guinea pigs (250-500 g) were shaved and depilated with Nair®. Control and treated groups each consisted of 5 animals, and selection of the animals and the control and treatment groups was achieved by random procedures. A rubber sheet with three one-half inch holes spaced one-half inch apart was draped over backs of the guinea pigs. The guinea pigs were then exposed to ultraviolet (UV) light (Hanovia Model 10, ~650-800 μW/cm^2) for 15 seconds by holding the animals against the light source. Fifty μL of the test drug or reference drug (indomethacin or bromfenac) preparation were immediately rubbed onto the skin, either on the area exposed to UV light or to an area adjacent to the UV light exposed skin. The degree of erythema for each exposed area was scored at various times following exposure according to the following scale:
1=slight redness with faint outline
2=moderate to marked redness with distinct outline
The score was totaled for each guinea pig (maximum score is 6). The Dunnett's t-test was used to determine significant (p≤0.05) differences from the control (placebo treated) group.

Take `CCCC[C@@H]1S[C@H](c2cccc(Oc3ccccc3)c2)N(c2ccc(O)cc2)C1=O` (relative stereo) [Example 3, 5-Butyl-3-(4-hydroxyphenyl)-2-(3-phenoxyphenyl)-4-thiazolidinone]: the IC50 in test [1] came to 5000 nM; in test [2], 8000 nM.
`CCCC[C@@H]1S[C@@H](c2cccc(Oc3ccccc3)c2)N(CCCCc2ccc(C(=O)OCC)cc2)C1=O` (relative stereo) [Example 5, 4-[4-[5-Butyl-4-oxo-2-(3-phenoxyphenyl)-3-thiazolidinyl]butyl]benzoic acid ethyl ester] showed an IC50 in test [2] of 70 nM.
As to `CCCC[C@@H]1S[C@H](c2cccc(Oc3ccccc3)c2)N(CCCCc2ccc(C(=O)OCC)cc2)C1=O` (relative stereo) [Example 6, 4-[4-[5-Butyl-4-oxo-2-(3-phenoxyphenyl)-3-thiazolidinyl]butyl]benzoic acid ethyl ester], in test [2], the IC50 came out at 50 nM.
`CCCC[C@@H]1S[C@@H](c2cccc(C(=O)c3ccccc3)c2)N(c2ccc(O)cc2)C1=O` (relative stereo) [Example 22, 2-(3-Benzoylphenyl)-5-butyl-3-(4-hydroxyphenyl)-4-thiazolidinone]: the IC50 came to 6400 nM in test [1] and 2200 nM in test [2].
For `CCCCC1SC(c2cccc(Oc3ccccc3)c2)N(CCc2ccccn2)C1=O` (stereo not shown) [Example 18, 5-Butyl-2-(3-phenoxyphenyl)-3-[2-(2-pyridinyl)ethyl]-4-thiazolidinone], the IC50 is 7800 nM in test [1] and 120 nM in test [2].
Consider `CCCCC1SC(c2cccc(Oc3ccccc3)c2)N(CCCOc2ccc(C(=O)O)cc2)C1=O` (stereo not shown) [Example 30, 4-[3-[5-Butyl-4-oxo-2-(3-phenoxyphenyl)-3-thiazolidinyl]propoxy]benzoic acid], for which the IC50 in test [1] stood at 3500 nM; in test [2] it was 1600 nM.
Regarding `CCCCC1SC(c2cccc(Oc3ccccc3)c2)N(CCCCCCC(=O)OCC)C1=O` (stereo not shown) [Example 55, 5-Butyl-4-oxo-2-(3-phenoxyphenyl)-3-thiazolidineheptanoic acid ethyl ester], the values for the IC50 in test [1] and in test [2] were roughly 10000 nM and 1000 nM, respectively.
Regarding `CCCCC1SC(c2cccc(Oc3ccccc3)c2)N(CCc2ccc(O)cc2)C1=O` (stereo not shown) [Example 59, 5-Butyl-3-[2-(4-hydroxyphenyl)ethyl]-2-(3-phenoxyphenyl)-4-thiazolidinone], in test [3], the “U.V. erythema (+ = active, - = inactive)” value is “+”.

By IC50 is commonly meant the concentration that inhibits the measured activity by half.
